Here are results for 24 compounds from US20180085330A1, “Dose Adjustment” (AbbVie Inc., priority 2016, published 2018).

Data set [1] in a line: Drug interaction studies: pharmacokinetic parameters of coadministered drug in the presence of glecaprevir/pibrentasvir. Format: in vivo, human. The method, then: Drug interaction studies were performed with glecaprevir/pibrentasvir and other drugs that are likely to be coadministered and with drugs commonly used as probes for pharmacokinetic interactions.
The conditions of data set [2]: cited from earlier work.
[3] abbreviates: EE/Levonorgestrel 20 μg/100 μg once daily, GLE/PIB 300/120 mg once daily.
[4] abbreviates: EE/Norgestimate 35 μg/250 μg once daily, GLE/PIB 300/120 mg once daily.
[5] abbreviates: dextromethorphan hydrobromide 30 mg single dose, GLE/PIB 300/120 mg once daily.
Where [6] appears, read: EVG/COBI/FTC/TAF 150/150/200/10 mg once daily, GLE/PIB 300/120 mg once daily.
Where [7] appears, read: sofosbuvir 400 mg once daily, GLE/PIB 400/120 mg once daily.
Setting [8] is: losartan 50 mg single dose, GLE/PIB 300/120 mg once daily.
[9] abbreviates: lovastatin 10 mg once daily, GLE/PIB 300/120 mg once daily.
Where [10] appears, read: omeprazole 20 mg single dose, GLE/PIB 300/120 mg once daily.
Where [11] appears, read: raltegravir 400 mg twice daily, GLE/PIB 300/120 mg once daily.
Where [12] appears, read: rilpivirine 25 mg once daily, GLE/PIB 300/120 mg once daily.
Setting [13] is: simvastatin 5 mg once daily, GLE/PIB 300/120 mg once daily.
[14] abbreviates: tacrolimus 1 mg single dose, GLE/PIB 300/120 mg once daily.
Setting [15] is: EFV/FTC/TDF 300/200/300 mg once daily, GLE/PIB 300/120 mg once daily.
The mark [16] stands for this setting: valsartan 80 mg single dose, GLE/PIB 300/120 mg once daily.
Where [17] appears, read: dabigatran etexilate 150 mg single dose, GLE/PIB 300/120 mg once daily.
Where [18] appears, read: pravastatin 10 mg once daily, GLE/PIB 400/120 mg once daily.
Where [19] appears, read: pravastatin coadministered with clarithromycin.
[20] abbreviates: rosuvastatin 5 mg once daily, GLE/PIB 400/120 mg once daily.
Setting [21] is: rosuvastatin coadministered with lopinavir/ritonavir.

Like-named read-outs stand apart in the source and are kept apart here.

In the case of `C#CC1(O)CC[C@H]2[C@@H]3CCC4=CC(=O)CC[C@@H]4[C@H]3CC[C@@]21CC` (mixture of isomers) [Norgestrel], in data set [1] (setting [3]), the “Central Value Ratio (90% CI) AUC” value is listed as 1.68, the “Central Value Ratio (90% CI) Cmax” value is 1.37 and the “Central Value Ratio (90% CI) Cmin” value is listed as 1.77. In data set [1] (setting [4]), the “Central Value Ratio (90% CI) AUC” value was 1.63, the “Central Value Ratio (90% CI) Cmax” value was 1.54 and the “Central Value Ratio (90% CI) Cmin” value is reported as 1.75.
Turning to `C#C[C@]1(O)CC[C@H]2[C@@H]3CCC4=CC(=NO)CC[C@@H]4[C@H]3CC[C@@]21CC` (mixture of isomers) [Norgestromin], in data set [1] (setting [4]), the “Central Value Ratio (90% CI) AUC” value is on record as 1.44 and the “Central Value Ratio (90% CI) Cmin” value is recorded as 1.45.
Turning to `Nc1nc(NC2CC2)c2ncn([C@H]3C=C[C@@H](CO)C3)c2n1` [Abacavir], the “Central Value Ratio (90% CI) Cmin” value in data set [1] (ABC/DTG/3TC 600/50/300 mg once daily, GLE/PIB 300/120 mg once daily) is on record as 1.31.
As for `Cn1c(=O)c2c(ncn2C)n(C)c1=O` [Caffeine], the “Central Value Ratio (90% CI) AUC” value in data set [1] (caffeine 100 mg single dose, GLE/PIB 300/120 mg once daily) is on record as 1.35.
In the case of `COc1ccc2c(c1)[C@]13CCCC[C@@H]1[C@H](C2)N(C)CC3` [Dextromethorphan], in data set [1] (setting [5]), the “Central Value Ratio (90% CI) AUC” value came out at 0.75 and the “Central Value Ratio (90% CI) Cmax” value was 0.70.
In the case of `COc1cc2c(cc1Cc1cccc(Cl)c1F)c(=O)c(C(=O)O)cn2[C@H](CO)C(C)C` [Elvitegravir], in data set [1] (setting [6]), the “Central Value Ratio (90% CI) AUC” value is on record as 1.47, the “Central Value Ratio (90% CI) Cmax” value is reported as 1.36 and the “Central Value Ratio (90% CI) Cmin” value worked out at 1.71.
For the compound `C#C[C@]1(O)CC[C@H]2[C@@H]3CCc4cc(O)ccc4[C@H]3CC[C@@]21C` [Ethinyl estradiol (EE), Ethinyl estradiol], in data set [1] (setting [3]), the “Central Value Ratio (90% CI) AUC” value was 1.40, the “Central Value Ratio (90% CI) Cmax” value stood at 1.30 and the “Central Value Ratio (90% CI) Cmin” value is listed as 1.56. Also, in data set [1] (setting [4]), the “Central Value Ratio (90% CI) AUC” value was 1.28, the “Central Value Ratio (90% CI) Cmax” value was 1.31 and the “Central Value Ratio (90% CI) Cmin” value is listed as 1.38.
As to `C[C@@]1(F)[C@H](O)[C@@H](CO)O[C@H]1n1ccc(=O)[nH]c1=O` [GS-331007], the “Central Value Ratio (90% CI) Cmin” value in data set [1] (setting [7]) is on record as 1.85.
Consider `CCCCc1nc(Cl)c(CO)n1Cc1ccc(-c2ccccc2-c2nn[nH]n2)cc1` [Losartan], for which, in data set [1] (setting [8]), the “Central Value Ratio (90% CI) AUC” value is reported as 1.56 and the “Central Value Ratio (90% CI) Cmax” value is listed as 2.51.
As for `CC[C@H](C)C(=O)O[C@H]1C[C@@H](C)C=C2C=C[C@H](C)[C@H](CC[C@@H](O)C[C@@H](O)CC(=O)O)[C@H]21` [Lovastatin acid], in data set [1] (setting [9]), the “Central Value Ratio (90% CI) AUC” value is on record as 4.10 and the “Central Value Ratio (90% CI) Cmax” value was 5.73.
As for `Cc1ncc2n1-c1ccc(Cl)cc1C(c1ccccc1F)=NC2` [Midazolam], the “Central Value Ratio (90% CI) AUC” value in data set [1] (midazolam 1 mg single dose, GLE/PIB 300/120 mg once dally) is 1.27.
Take `COc1ccc2[nH]c([S+]([O-])Cc3ncc(C)c(OC)c3C)nc2c1` (stereo not shown) [Omeprazole]: in data set [1] (setting [10]), the “Central Value Ratio (90% CI) AUC” value stood at 0.79 and the “Central Value Ratio (90% CI) Cmax” value worked out at 0.57.
Consider `Cc1nnc(C(=O)NC(C)(C)c2nc(C(=O)NCc3ccc(F)cc3)c(O)c(=O)n2C)o1` [Raltegravir], for which, in data set [1] (setting [11]), the “Central Value Ratio (90% CI) AUC” value worked out at 1.47, the “Central Value Ratio (90% CI) Cmax” value stood at 1.34 and the “Central Value Ratio (90% CI) Cmin” value turned out to be 2.64.
In the case of `Cc1cc(/C=C/C#N)cc(C)c1Nc1ccnc(Nc2ccc(C#N)cc2)n1` [Rilpivirine], in data set [1] (setting [12]), the “Central Value Ratio (90% CI) AUC” value is given as 1.84, the “Central Value Ratio (90% CI) Cmax” value turned out to be 2.05 and the “Central Value Ratio (90% CI) Cmin” value amounted to 1.77.
In the case of `CCC(C)(C)C(=O)O[C@H]1C[C@@H](C)C=C2C=C[C@H](C)[C@H](CC[C@@H](O)C[C@@H](O)CC(=O)O)[C@H]21` [Simvastatin acid], in data set [1] (setting [13]), the “Central Value Ratio (90% CI) AUC” value is recorded as 4.48 and the “Central Value Ratio (90% CI) Cmax” value was 10.7.
In the case of `CC(C)OC(=O)[C@H](C)N[P@](=O)(OC[C@H]1O[C@@H](n2ccc(=O)[nH]c2=O)[C@](C)(F)[C@@H]1O)Oc1ccccc1` [Sofosbuvir], in data set [1] (setting [7]), the “Central Value Ratio (90% CI) AUC” value came out at 2.25 and the “Central Value Ratio (90% CI) Cmax” value is given as 1.66.
Consider `C=CC[C@@H]1/C=C(\C)C[C@H](C)C[C@H](OC)[C@H]2O[C@@](O)(C(=O)C(=O)N3CCCC[C@H]3C(=O)O[C@H](/C(C)=C/[C@@H]3CC[C@@H](O)[C@H](OC)C3)[C@H](C)[C@@H](O)CC1=O)[C@H](C)C[C@@H]2OC` [Tacrolimus], for which, in data set [1] (setting [14]), the “Central Value Ratio (90% CI) AUC” value amounted to 1.45 and the “Central Value Ratio (90% CI) Cmax” value is 1.50.
As for `C[C@H](Cn1cnc2c(N)ncnc21)OCP(=O)(O)O` [Tenofovir], in data set [1] (setting [15]), the “Central Value Ratio (90% CI) AUC” value is 1.29 and the “Central Value Ratio (90% CI) Cmin” value worked out at 1.38.
`CCCCC(=O)N(Cc1ccc(-c2ccccc2-c2nnn[nH]2)cc1)[C@H](C(=O)O)C(C)C` [Valsartan]: in data set [1] (setting [16]), the “Central Value Ratio (90% CI) AUC” value was determined as 1.31 and the “Central Value Ratio (90% CI) Cmax” value is 1.36.
As to `[H]/N=C(/N)c1ccc(NCc2nc3cc(C(=O)N(CCC(=O)O)c4ccccn4)ccc3n2C)cc1` [dabigatran], in data set [1] (setting [17]), the “Central Value Ratio (90% CI) AUC” value is recorded as 2.38 and the “Central Value Ratio (90% CI) Cmax” value came to 2.05.
Regarding `CC[C@H](C)C(=O)O[C@H]1C[C@@H](C)C=C2C=C[C@H](C)[C@H](CC[C@@H]3C[C@@H](O)CC(=O)O3)[C@H]21` [lovastatin], the “Central Value Ratio (90% CI) AUC” value in data set [1] (setting [9]) is 1.70.
Consider `CC[C@H](C)C(=O)O[C@H]1C[C@H](O)C=C2C=C[C@H](C)[C@H](CC[C@@H](O)C[C@@H](O)CC(=O)O)[C@H]21` [pravastatin], for which, in data set [1] (setting [18]), the “Central Value Ratio (90% CI) AUC” value is recorded as 2.30 and the “Central Value Ratio (90% CI) Cmax” value is reported as 2.23. For the same compound, in data set [2] (setting [19]), the AUC increase is reported as 2.3 fold and the Cmax increase is given as 2.1 fold.
With `CC(C)c1nc(N(C)S(C)(=O)=O)nc(-c2ccc(F)cc2)c1/C=C/[C@@H](O)C[C@@H](O)CC(=O)O` [rosuvastatin], in data set [1] (setting [20]), the “Central Value Ratio (90% CI) AUC” value was 2.15 and the “Central Value Ratio (90% CI) Cmax” value amounted to 5.62. In data set [2] (setting [21]), the AUC increase is on record as 2.1 fold and the Cmax increase is given as 5 fold.
On to `CCC(C)(C)C(=O)O[C@H]1C[C@@H](C)C=C2C=C[C@H](C)[C@H](CC[C@@H]3C[C@@H](O)CC(=O)O3)[C@H]21` [simvastatin], for which, in data set [1] (setting [13]), the “Central Value Ratio (90% CI) AUC” value was found to be 2.32 and the “Central Value Ratio (90% CI) Cmax” value is 1.99.
